Experimental data published in patent US12215133B2 (BrightGene Bio-Medical Technology Co., Ltd., priority 2021, dated 2025).
Marks after values point to notes of the source that are not given here.

Test system: db/db mice
Test: Inhibitory effect of BG128 on hyperglycemia in db/db mice (Experimental Example 3)
Format: in vivo
Conditions: for Insulin in serum: 3 days after the last administration; for Insulin in serum / Fasting blood glucose: n = 11; for non-fasting blood glucose after the first administration: FIG. 11
[1] = 0.05 mg/kg s.c. once every three days, anticoagulated whole blood, end of experiment, Mean ± SEM

In the case of CNC(CCCCNC(=O)COCCOCCOCCNC(=O)COCCOCCOCCNC(=O)CCC(NC(=O)CC(=O)O)C(=O)O)C(N)=O (stereo not drawn) [BG128], the Insulin in serum (0.05 mg/kg s.c. once every three days, Mean ± SD) is reported as 37649.0 ± 3597.0ª nIU/mL, the Fasting blood glucose (0.05 mg/kg s.c. once every three days, Day 0 (before administration, baseline), Mean ± SD) is reported as 23.18 ± 1.15 mmol/L and the Fasting blood glucose (0.05 mg/kg s.c. once every three days, Day 7, Mean ± SD) is reported as 21.68 ± 1.77^b mmol/L. The Fasting blood glucose (0.05 mg/kg s.c. once every three days, Day 13, Mean ± SD) was 21.68 ± 1.11 mmol/L, the Fasting blood glucose (0.05 mg/kg s.c. once every three days, Day 19, Mean ± SD) was 24.30 ± 1.41^c mmol/L and the Fasting blood glucose (0.05 mg/kg s.c. once every three days, Day 25, Mean ± SD) was 18.32 ± 1.37^c mmol/L. For the same compound, the Fasting blood glucose (0.05 mg/kg s.c. once every three days, Day 31, Mean ± SD) was 20.15 ± 1.91^c mmol/L, the HbA1C [1] was 5.18 ± 0.23 and the HbA1C% [1] was 4.07 ± 0.13ª %. For the same compound, the Insulin in serum (0.15 mg/kg s.c. once every three days, Mean ± SD) was 30897.0 ± 5634.0^a nIU/mL, the Fasting blood glucose (0.15 mg/kg s.c. once every three days, Day 0 (before administration, baseline), Mean ± SD) was 23.17 ± 1.19 mmol/L and the Fasting blood glucose (0.15 mg/kg s.c. once every three days, Day 7, Mean ± SD) was 22.78 ± 1.11^a mmol/L. The Fasting blood glucose (0.15 mg/kg s.c. once every three days, Day 13, Mean ± SD) was 21.58 ± 1.13 mmol/L, the Fasting blood glucose (0.15 mg/kg s.c. once every three days, Day 19, Mean ± SD) was 26.14 ± 1.05^b mmol/L and the Fasting blood glucose (0.15 mg/kg s.c. once every three days, Day 25, Mean ± SD) was 15.70 ± 1.50^c mmol/L. The Fasting blood glucose (0.15 mg/kg s.c. once every three days, Day 31, Mean ± SD) was 20.38 ± 1.87^c mmol/L, the HbA1C% (0.15 mg/kg s.c. once every three days, anticoagulated whole blood, end of experiment, Mean ± SEM) was 4.04 ± 0.14ª % and the Insulin in serum (0.5 mg/kg s.c. once every three days, Mean ± SD) was 32774.0 ± 6290.0^a nIU/mL. The Fasting blood glucose (0.5 mg/kg s.c. once every three days, Day 0 (before administration, baseline), Mean ± SD) was 22.99 ± 1.35 mmol/L, the Fasting blood glucose (0.5 mg/kg s.c. once every three days, Day 7, Mean ± SD) was 15.54 ± 1.49^c mmol/L and the Fasting blood glucose (0.5 mg/kg s.c. once every three days, Day 13, Mean ± SD) was 16.79 ± 1.20^c mmol/L. For the same compound, the Fasting blood glucose (0.5 mg/kg s.c. once every three days, Day 19, Mean ± SD) was 13.26 ± 1.91^c mmol/L, the Fasting blood glucose (0.5 mg/kg s.c. once every three days, Day 25, Mean ± SD) was 11.85 ± 1.74^c mmol/L and the Fasting blood glucose (0.5 mg/kg s.c. once every three days, Day 31, Mean ± SD) was 16.41 ± 1.68^c mmol/L. The “non-fasting blood glucose after the first administration” value (BG128 dose groups 0.05, 0.15, 0.5 mg/kg s.c., 0-72 h) was “decreased rapidly within 24 h after the first administration”, the “body weight during the first administration” value (Tirzepatide 0.15 mg/kg, BG128 0.05, 0.15, 0.5 mg/kg s.c., FIG. 8 and 9) was “positively correlated with the administration dose” and the “food intake after the first administration vs db/db-ND group” value (Tirzepatide 0.15 mg/kg, BG128 0.05, 0.15, 0.5 mg/kg s.c., FIG. 10) was “positively correlated with the administration dose”. For the same compound, the “animal body weight loss rate compared with Tirzepatide” value (equal dose (0.15 mg/kg s.c.), FIG. 8 and 9) was “better than that of Tirzepatide administration group”, the “decrease in food intake compared with Tirzepatide” value (equal dose (0.15 mg/kg s.c.), FIG. 10) was “significantly greater than that of the positive control group Tirzepatide” and the “non-fasting blood glucose after the first administration” value (high-dose group 0.5 mg/kg s.c., 24 h-72 h after administration) was “maintained in a relatively low range”.
